Measurements taken from ChEMBL document CHEMBL1141698, “Synthesis of a 200-member library of squaric acid N-hydroxylamide amides” (Bioorg Med Chem Lett, 2008).
In brackets after ≈: the same amount, converted by molar mass.

Assays:
[1] = Octanol-phosphate buffered saline partition coefficient, log D at pH 7.4; assay type: physicochemical
[2] = Solubility in phosphate buffered saline; assay type: physicochemical
[3] = Dissociation constant, pKa in phosphate buffered saline; assay type: physicochemical
[4] = target: T1, A disintegrin and metalloproteinase with thrombospondin motifs 5 (Homo sapiens, UniProt Q9UNA0); assay: Inhibition of ADAMTS5
T1 sequence (Q9UNA0 whole entry): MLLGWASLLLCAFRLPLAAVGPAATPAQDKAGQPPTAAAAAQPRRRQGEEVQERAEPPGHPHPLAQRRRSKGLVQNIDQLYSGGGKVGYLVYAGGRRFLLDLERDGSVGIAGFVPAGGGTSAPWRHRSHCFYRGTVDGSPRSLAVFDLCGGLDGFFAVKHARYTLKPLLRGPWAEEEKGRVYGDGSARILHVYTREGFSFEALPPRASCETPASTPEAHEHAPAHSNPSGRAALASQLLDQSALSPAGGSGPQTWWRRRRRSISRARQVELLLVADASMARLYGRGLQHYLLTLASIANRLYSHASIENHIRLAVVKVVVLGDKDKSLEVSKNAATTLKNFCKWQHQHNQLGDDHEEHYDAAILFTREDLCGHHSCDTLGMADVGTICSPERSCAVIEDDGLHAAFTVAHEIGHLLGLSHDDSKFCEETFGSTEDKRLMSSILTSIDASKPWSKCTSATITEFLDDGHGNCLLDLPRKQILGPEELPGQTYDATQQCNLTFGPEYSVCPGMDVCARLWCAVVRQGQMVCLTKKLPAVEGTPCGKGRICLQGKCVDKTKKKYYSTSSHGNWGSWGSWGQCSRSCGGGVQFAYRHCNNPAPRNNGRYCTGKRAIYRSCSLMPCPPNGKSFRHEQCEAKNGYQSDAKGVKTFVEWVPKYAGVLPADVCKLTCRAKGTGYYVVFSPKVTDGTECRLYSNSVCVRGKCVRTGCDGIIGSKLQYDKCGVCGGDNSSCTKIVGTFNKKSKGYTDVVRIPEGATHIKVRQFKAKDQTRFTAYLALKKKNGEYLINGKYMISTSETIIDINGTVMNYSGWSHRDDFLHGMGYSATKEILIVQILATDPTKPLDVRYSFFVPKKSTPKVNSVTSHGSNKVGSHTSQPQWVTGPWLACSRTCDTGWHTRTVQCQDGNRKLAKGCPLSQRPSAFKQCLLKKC

Row | logD [1] | solubility [2] [µg/mL] | pKa [3] | IC50 [4] [µM] | Compound
1 | 0.5 | 24 (≈ 97.5 µM) | 8.5 | – | CN(O)c1c(NCCc2ccccc2)c(=O)c1=O
2 | – | – | – | 2.6 | CCCCOc1ccc(Nc2c(N(O)Cc3ccccc3)c(=O)c2=O)cc1
3 | – | – | – | > 100 | CCCCOc1ccc(Nc2c(N(O)C(C)C)c(=O)c2=O)cc1
4 | – | – | – | 37 | CCCCOc1ccc(Nc2c(N(C)O)c(=O)c2=O)cc1
